Laboratory results published in ChEMBL document CHEMBL6127079, “Design and synthesis of spiro[pyrrolidine-3,3'-quinoline]-2,2'-dione derivatives as novel antifungal agents targeting chitin synthase” (Eur J Med Chem, 2024).
In brackets after ≈: the same amount, converted by molar mass. Activity calls are given as the source filed them. The rule behind the calls is not given here.

How the values were obtained:
[1] = system: Cryptococcus neoformans; experiment: Antifungal activity against Cryptococcus neoformans ATCC 32719 assessed as Polyoxin B MIC incubated for 24 hrs in presence of fluconazole by half broth dilution based checkerboard method; format: functional
[2] = system: Aspergillus fumigatus; experiment: Antifungal activity against fluconazole-resistant Aspergillus fumigatus GIMCC 3.19 assessed as inhibition of fungal growth incubated for 24 to 72 hrs; format: functional; conditions: time 24-72 hrs
[3] = system: Aspergillus flavus; experiment: Synergistic antifungal activity against Aspergillus flavus ATCC 16870 assessed as fractional inhibitory concentration index in presence of Polyoxin B incubated for 24 hrs by half broth dilution based checkerboard method; format: functional
[4] = system: Candida tropicalis; experiment: Non-competitive inhibition of chitin synthase extracted from Candida tropicalis ATCC 750 using UDP-GlcNAc as substrate assessed as decrease in Vm with constant Km at 0 to 0.15 mM by Lineweaver-Burk plot analysis; conditions: dose 0-0.15 mM
[5] = system: Cryptococcus neoformans; experiment: Synergistic antifungal activity against Cryptococcus neoformans ATCC 32719 assessed as fractional inhibitory concentration index in presence of Polyoxin B incubated for 24 hrs by half broth dilution based checkerboard method; format: functional
[6] = system: A549; experiment: Cytotoxicity against human A549 cells assessed as reduction in cell viability at 4 microg/ml incubated for 24 hrs by CCK-8 assay relative to control; format: toxicity, cell-based; conditions: a549, 24 h, at 4 µg/mL
[7] = system: A549; experiment: Cytotoxicity against human A549 cells assessed as reduction in cell viability at 32 microg/ml incubated for 24 hrs by CCK-8 assay relative to control; format: toxicity, cell-based; conditions: a549, 24 h, at 32 µg/mL
[8] = system: Candida albicans; experiment: Synergistic antifungal activity against Candida albicans ATCC 76615 assessed as fractional inhibitory concentration index in presence of fluconazole incubated for 24 hrs by half broth dilution based checkerboard method; format: functional
[9] = system: Cryptococcus neoformans; experiment: Antifungal activity against Cryptococcus neoformans ATCC 32719 incubated for 24 hrs by half broth dilution based checkerboard method; format: functional
[10] = system: Candida tropicalis; experiment: Inhibition of chitin synthase extracted from Candida tropicalis ATCC 750 using UDP-GlcNAc as substrate assessed as inhibition rate at 300 ug/ml by TMB based microplate analyzer relative to control; conditions: dose 300.0 µg/ml
[11] = system: Aspergillus flavus; experiment: Antifungal activity against fluconazole-resistant Aspergillus flavus ATCC 16870 assessed as inhibition of fungal growth incubated for 24 to 72 hrs; format: functional; conditions: time 24-72 hrs
[12] = system: Candida albicans; experiment: Antifungal activity against Candida albicans ATCC 76615 assessed as fluconazole MIC incubated for 24 hrs in presence of fluconazole by half broth dilution based checkerboard method; format: functional
[13] = system: Candida albicans; experiment: Antifungal activity against Candida albicans ATCC 76615 incubated for 24 hrs by half broth dilution based checkerboard method; format: functional
[14] = system: Aspergillus flavus; experiment: Antifungal activity against Aspergillus flavus ATCC 16870 incubated for 24 hrs by half broth dilution based checkerboard method; format: functional
[15] = system: Aspergillus fumigatus; experiment: Antifungal activity against Aspergillus fumigatus GIMCC 3.19 assessed as inhibition of growth incubated for 24 hrs by two-fold serial dilution method; format: functional
[16] = system: Aspergillus flavus; experiment: Synergistic antifungal activity against Aspergillus flavus ATCC 16870 assessed as fractional inhibitory concentration index in presence of fluconazole incubated for 24 hrs by half broth dilution based checkerboard method; format: functional
[17] = Non-competitive inhibition of chitin synthase extracted from Candida tropicalis ATCC 750 using UDP-GlcNAc as substrate assessed as inhibition constant by Lineweaver-Burk plot analysis
[18] = system: Candida albicans; experiment: Antifungal activity against drug-resistant Candida albicans ATCC 76615 assessed as inhibition of cell wall synthesis in presence of sorbitol incubated for 24 hrs; format: functional
[19] = system: Aspergillus fumigatus; experiment: Antifungal activity against Aspergillus fumigatus GIMCC 3.19 incubated for 24 hrs by half broth dilution based checkerboard method; format: functional
[20] = system: Candida albicans; experiment: Antifungal activity against micafungin-resistant Candida albicans ATCC 76615 assessed as inhibition of fungal growth incubated for 24 to 72 hrs; format: functional; conditions: time 24-72 hrs
[21] = system: Aspergillus fumigatus; experiment: Antifungal activity against Aspergillus fumigatus GIMCC 3.19 assessed as fluconazole MIC incubated for 24 hrs in presence of fluconazole by half broth dilution based checkerboard method; format: functional
[22] = system: Aspergillus fumigatus; experiment: Synergistic antifungal activity against Aspergillus fumigatus GIMCC 3.19 assessed as fractional inhibitory concentration index in presence of fluconazole incubated for 24 hrs by half broth dilution based checkerboard method; format: functional
[23] = system: Cryptococcus neoformans; experiment: Antifungal activity against fluconazole-resistant Cryptococcus neoformans ATCC 32719 assessed as inhibition of fungal growth incubated for 24 to 72 hrs; format: functional; conditions: time 24-72 hrs
[24] = system: Aspergillus flavus; experiment: Antifungal activity against Aspergillus flavus ATCC 16870 assessed as fluconazole MIC incubated for 24 hrs in presence of fluconazole by half broth dilution based checkerboard method; format: functional
[25] = system: Aspergillus flavus; experiment: Antifungal activity against drug-resistant Aspergillus flavus ATCC 16870 assessed as inhibition of cell wall synthesis in presence of sorbitol incubated for 24 hrs; format: functional
[26] = system: A549; experiment: Cytotoxicity against human A549 cells assessed as reduction in cell viability at 16 microg/ml incubated for 24 hrs by CCK-8 assay relative to control; format: toxicity, cell-based; conditions: a549, 24 h, at 16 µg/mL
[27] = system: Aspergillus fumigatus; experiment: Antifungal activity against drug-resistant Aspergillus fumigatus GIMCC 3.19 assessed as inhibition of cell wall synthesis in presence of sorbitol incubated for 24 hrs; format: functional
[28] = system: Aspergillus flavus; experiment: Antifungal activity against Aspergillus flavus ATCC 16870 assessed as inhibition of growth incubated for 24 hrs by two-fold serial dilution method; format: functional
[29] = Inhibition of chitin synthase extracted from Candida tropicalis ATCC 750 using UDP-GlcNAc as substrate assessed as inhibition rate by TMB based microplate analyzer relative to control
[30] = system: Aspergillus flavus; experiment: Antifungal activity against Aspergillus flavus ATCC 16870 assessed as Polyoxin B MIC incubated for 24 hrs in presence of fluconazole by half broth dilution based checkerboard method; format: functional
[31] = system: Cryptococcus neoformans; experiment: Synergistic antifungal activity against Cryptococcus neoformans ATCC 32719 assessed as fractional inhibitory concentration index in presence of fluconazole incubated for 24 hrs by half broth dilution based checkerboard method; format: functional
[32] = system: Candida albicans; experiment: Antifungal activity against fluconazole-resistant Candida albicans ATCC 76615 assessed as inhibition of fungal growth incubated for 24 to 72 hrs; format: functional; conditions: time 24-72 hrs
[33] = system: Aspergillus fumigatus; experiment: Antifungal activity against Aspergillus fumigatus GIMCC 3.19 assessed as Polyoxin B MIC incubated for 24 hrs in presence of fluconazole by half broth dilution based checkerboard method; format: functional
[34] = system: Candida albicans; experiment: Synergistic antifungal activity against Candida albicans ATCC 76615 assessed as fractional inhibitory concentration index in presence of Polyoxin B incubated for 24 hrs by half broth dilution based checkerboard method; format: functional
[35] = system: A549; experiment: Cytotoxicity against human A549 cells assessed as reduction in cell viability at 128 microg/ml incubated for 24 hrs by CCK-8 assay relative to control; format: toxicity, cell-based; conditions: a549, 24 h, at 128 µg/mL
[36] = system: Candida albicans; experiment: Antifungal activity against Candida albicans ATCC 76615 assessed as inhibition of growth incubated for 24 hrs by two-fold serial dilution method; format: functional
[37] = system: A549; experiment: Cytotoxicity against human A549 cells assessed as reduction in cell viability at 64 microg/ml incubated for 24 hrs by CCK-8 assay relative to control; format: toxicity, cell-based; conditions: a549, 24 h, at 64 µg/mL
[38] = system: A549; experiment: Cytotoxicity against human A549 cells assessed as reduction in cell viability at 8 microg/ml incubated for 24 hrs by CCK-8 assay relative to control; format: toxicity, cell-based; conditions: a549, 24 h, at 8 µg/mL
[39] = system: Cryptococcus neoformans; experiment: Antifungal activity against Cryptococcus neoformans ATCC 32719 assessed as inhibition of growth incubated for 24 hrs by two-fold serial dilution method; format: functional
[40] = system: Candida albicans; experiment: Antifungal activity against Candida albicans ATCC 76615 assessed as Polyoxin B MIC incubated for 24 hrs in presence of fluconazole by half broth dilution based checkerboard method; format: functional
[41] = system: Cryptococcus neoformans; experiment: Antifungal activity against drug-resistant Cryptococcus neoformans ATCC 32719 assessed as inhibition of cell wall synthesis in presence of sorbitol incubated for 24 hrs; format: functional
[42] = system: Cryptococcus neoformans; experiment: Antifungal activity against Cryptococcus neoformans ATCC 32719 assessed as fluconazole MIC incubated for 24 hrs in presence of fluconazole by half broth dilution based checkerboard method; format: functional
[43] = system: Aspergillus fumigatus; experiment: Synergistic antifungal activity against Aspergillus fumigatus GIMCC 3.19 assessed as fractional inhibitory concentration index in presence of Polyoxin B incubated for 24 hrs by half broth dilution based checkerboard method; format: functional

With `O=C(/C=C/C(=O)Nc1nc2ccccc2s1)Nc1ccc2c(c1)NC(=O)C1(CCNC1=O)C2` (racemic) as the molecule, how does the MIC [1] read?
Its MIC is 4 µg/mL.

What about the MIC [2] of the same molecule?
Its MIC is 32 µg/mL (≈ 69.3 µM).

What about the “fractional inhibitory concentration index (FICI)” value [3] of the same molecule?
The value was 0.75.

What about the inhibition [4] of the same molecule?
Its inhibition is “Active”.

What about the “fractional inhibitory concentration index (FICI)” value [5] of the same molecule?
Its value is 1.

What about the Activity [6] of the same molecule?
The Activity was 93.5%.

And the Activity [7]?
Its Activity is 87.9%.

What about the “fractional inhibitory concentration index (FICI)” value [8] of the same molecule?
Its value is 0.5.

What about the MIC [9] of the same molecule?
Its MIC is 2 µg/mL.

What about the inhibition [10] of the same molecule?
The inhibition was 82.5%.

What about the MIC [11] of the same molecule?
The MIC was 32 µg/mL (≈ 69.3 µM).

And the MIC [12]?
The MIC was 2 µg/mL.

And the MIC [13]?
Its MIC is 2 µg/mL.

And the MIC [14]?
The MIC was 4 µg/mL.

What about the MIC [15] of the same molecule?
Its MIC is 4 µg/mL (≈ 8.67 µM).

And the “fractional inhibitory concentration index (FICI)” value [16]?
The value was 0.75.

And the Ki [17]?
Its Ki is 114 µM.

What about the MIC [18] of the same molecule?
The MIC was 128 µg/mL.

What about the MIC [19] of the same molecule?
The MIC was 2 µg/mL.

What about the MIC [20] of the same molecule?
The MIC was 64 µg/mL (≈ 139 µM).

And the MIC [21]?
Its MIC is 4 µg/mL.

What about the “fractional inhibitory concentration index (FICI)” value [22] of the same molecule?
Its value is 1.5.

What about the MIC [23] of the same molecule?
The MIC was 64 µg/mL (≈ 139 µM).

And the MIC [24]?
The MIC was 2 µg/mL.

And the MIC [25]?
The MIC was 128 µg/mL.

What about the Activity [26] of the same molecule?
Its Activity is 91.1%.

And the MIC [27]?
Its MIC is 64 µg/mL.

And the MIC [28]?
The MIC was 16 µg/mL (≈ 34.7 µM).

What about the IC50 [29] of the same molecule?
Its IC50 is 104 µM.

And the MIC [30]?
Its MIC is 8 µg/mL.

And the “fractional inhibitory concentration index (FICI)” value [31]?
Its value is 1.

And the MIC [32]?
Its MIC is 64 µg/mL (≈ 139 µM).

What about the MIC [33] of the same molecule?
The MIC was 2 µg/mL.

And the “fractional inhibitory concentration index (FICI)” value [34]?
The value was 0.5.

And the Activity [35]?
The Activity was 68.4%.

What about the MIC [36] of the same molecule?
The MIC was 8 µg/mL (≈ 17.3 µM).

And the Activity [37]?
The Activity was 79.1%.

And the Activity [38]?
Its Activity is 90.5%.

What about the MIC [39] of the same molecule?
Its MIC is 4 µg/mL (≈ 8.67 µM).

What about the MIC [40] of the same molecule?
Its MIC is 2 µg/mL.

What about the MIC [41] of the same molecule?
The MIC was 64 µg/mL.

What about the MIC [42] of the same molecule?
The MIC was 4 µg/mL.

What about the “fractional inhibitory concentration index (FICI)” value [43] of the same molecule?
The value was 1.5.
